Test results published in ChEMBL document CHEMBL5247649, “Comparative Efficacy and Selectivity of Pharmacological Inhibitors of DYRK and CLK Protein Kinases” (J Med Chem, 2023).

Tests used:
[1] = molecular target: Cyclin-dependent kinase 5/CDK5 activator 1 (Homo sapiens, UniProt Q00535); test: biochemical; assay type: cell-based, Sf9
[2] = molecular target: Casein kinase I isoform epsilon (Homo sapiens, UniProt P49674); test: biochemical; assay type: cell-based, Sf9
[3] = molecular target: T1, Dual specificity protein kinase CLK1 (Homo sapiens, UniProt P49759); test: biochemical; assay type: cell-based, Sf9
[4] = molecular target: Dual specificity protein kinase CLK3 (Homo sapiens, UniProt P49761); test: biochemical; assay type: cell-based, Sf9
[5] = molecular target: T2, Dual specificity tyrosine-phosphorylation-regulated kinase 2 (Homo sapiens, UniProt Q92630); test: biochemical; assay type: cell-based, Sf9
T2 sequence (Q92630 whole entry): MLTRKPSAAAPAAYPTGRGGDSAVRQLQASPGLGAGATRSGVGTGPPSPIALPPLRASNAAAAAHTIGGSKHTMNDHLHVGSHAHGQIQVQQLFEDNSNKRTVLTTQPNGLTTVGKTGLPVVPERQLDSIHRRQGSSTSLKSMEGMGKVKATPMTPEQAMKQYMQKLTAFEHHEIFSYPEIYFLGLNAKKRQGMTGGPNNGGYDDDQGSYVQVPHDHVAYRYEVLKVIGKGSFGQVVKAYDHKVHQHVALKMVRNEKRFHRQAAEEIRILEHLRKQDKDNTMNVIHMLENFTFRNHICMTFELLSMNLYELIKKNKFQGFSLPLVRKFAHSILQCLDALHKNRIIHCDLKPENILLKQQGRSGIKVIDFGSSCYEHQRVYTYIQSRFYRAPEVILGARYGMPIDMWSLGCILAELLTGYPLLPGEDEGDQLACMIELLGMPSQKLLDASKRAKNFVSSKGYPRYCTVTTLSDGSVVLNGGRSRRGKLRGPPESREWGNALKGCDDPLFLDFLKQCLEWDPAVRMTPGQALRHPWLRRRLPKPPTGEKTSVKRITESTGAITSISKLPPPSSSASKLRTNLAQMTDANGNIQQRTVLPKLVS

[6] = molecular target: T3, Dual specificity tyrosine-phosphorylation-regulated kinase 3 (Homo sapiens, UniProt O43781); test: biochemical; assay type: cell-based, Sf9
T3 sequence (O43781 whole entry): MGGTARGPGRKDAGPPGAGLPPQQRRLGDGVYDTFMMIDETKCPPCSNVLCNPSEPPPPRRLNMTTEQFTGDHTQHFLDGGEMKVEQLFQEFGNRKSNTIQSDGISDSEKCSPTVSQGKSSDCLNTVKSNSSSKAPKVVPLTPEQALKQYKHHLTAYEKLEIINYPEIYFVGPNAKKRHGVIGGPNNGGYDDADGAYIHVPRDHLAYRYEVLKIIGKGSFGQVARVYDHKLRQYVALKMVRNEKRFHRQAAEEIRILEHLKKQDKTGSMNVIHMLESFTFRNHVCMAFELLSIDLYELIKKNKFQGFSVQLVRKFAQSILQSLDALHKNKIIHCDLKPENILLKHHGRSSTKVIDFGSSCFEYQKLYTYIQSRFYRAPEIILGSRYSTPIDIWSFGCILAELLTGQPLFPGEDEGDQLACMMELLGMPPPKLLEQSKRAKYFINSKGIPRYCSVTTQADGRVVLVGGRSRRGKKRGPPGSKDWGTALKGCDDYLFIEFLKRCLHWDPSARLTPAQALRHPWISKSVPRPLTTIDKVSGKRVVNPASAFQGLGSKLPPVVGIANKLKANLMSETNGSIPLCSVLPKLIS

[7] = molecular target: T4, Dual specificity tyrosine-phosphorylation-regulated kinase 4 (Homo sapiens, UniProt Q9NR20); test: biochemical; assay type: cell-based, Sf9
T4 sequence (Q9NR20 whole entry): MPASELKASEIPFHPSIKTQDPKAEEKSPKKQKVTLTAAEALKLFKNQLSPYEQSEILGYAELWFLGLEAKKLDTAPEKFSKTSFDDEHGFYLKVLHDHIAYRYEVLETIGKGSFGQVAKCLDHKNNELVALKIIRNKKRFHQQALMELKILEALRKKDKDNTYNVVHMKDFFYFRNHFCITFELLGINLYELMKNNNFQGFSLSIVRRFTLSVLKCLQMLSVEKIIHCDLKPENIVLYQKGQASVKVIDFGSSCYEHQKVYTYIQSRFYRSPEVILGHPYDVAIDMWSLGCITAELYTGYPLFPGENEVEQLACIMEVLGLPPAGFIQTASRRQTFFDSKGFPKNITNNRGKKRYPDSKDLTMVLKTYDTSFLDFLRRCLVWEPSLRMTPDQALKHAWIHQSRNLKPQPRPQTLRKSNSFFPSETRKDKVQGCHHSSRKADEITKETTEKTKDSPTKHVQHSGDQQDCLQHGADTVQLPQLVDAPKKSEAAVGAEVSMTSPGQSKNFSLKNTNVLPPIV

[8] = molecular target: T1, Dual specificity protein kinase CLK1; test: biochemical; assay type: cell-based, Sf9; conditions: read-out: IC50
[9] = molecular target: T1, Dual specificity protein kinase CLK1
in vitro = conditions: mouse, ht-22
[10] = molecular target: Dual specificity protein kinase CLK2 (Homo sapiens, UniProt P49760); test: biochemical
[11] = molecular target: Dual specificity protein kinase CLK4 (Homo sapiens, UniProt Q9HAZ1); test: biochemical
[12] = molecular target: T5, Glycogen synthase kinase-3 beta (Homo sapiens, UniProt P49841); test: biochemical; assay type: cell-based, Sf9
[13] = molecular target: T5, Glycogen synthase kinase-3 beta

T5 sequence (P49841 whole entry): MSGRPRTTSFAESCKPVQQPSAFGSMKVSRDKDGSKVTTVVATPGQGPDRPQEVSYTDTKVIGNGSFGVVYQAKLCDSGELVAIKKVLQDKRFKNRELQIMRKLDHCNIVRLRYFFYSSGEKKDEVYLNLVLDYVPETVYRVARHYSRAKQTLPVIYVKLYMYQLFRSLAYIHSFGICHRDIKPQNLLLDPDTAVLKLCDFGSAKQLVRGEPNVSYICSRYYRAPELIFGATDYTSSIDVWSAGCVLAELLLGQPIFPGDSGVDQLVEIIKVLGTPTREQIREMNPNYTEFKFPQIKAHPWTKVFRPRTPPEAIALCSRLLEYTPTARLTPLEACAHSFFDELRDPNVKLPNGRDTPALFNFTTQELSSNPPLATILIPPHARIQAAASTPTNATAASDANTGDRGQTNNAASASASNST
Chain of Dual specificity protein kinase CLK2 (P49760 whole entry): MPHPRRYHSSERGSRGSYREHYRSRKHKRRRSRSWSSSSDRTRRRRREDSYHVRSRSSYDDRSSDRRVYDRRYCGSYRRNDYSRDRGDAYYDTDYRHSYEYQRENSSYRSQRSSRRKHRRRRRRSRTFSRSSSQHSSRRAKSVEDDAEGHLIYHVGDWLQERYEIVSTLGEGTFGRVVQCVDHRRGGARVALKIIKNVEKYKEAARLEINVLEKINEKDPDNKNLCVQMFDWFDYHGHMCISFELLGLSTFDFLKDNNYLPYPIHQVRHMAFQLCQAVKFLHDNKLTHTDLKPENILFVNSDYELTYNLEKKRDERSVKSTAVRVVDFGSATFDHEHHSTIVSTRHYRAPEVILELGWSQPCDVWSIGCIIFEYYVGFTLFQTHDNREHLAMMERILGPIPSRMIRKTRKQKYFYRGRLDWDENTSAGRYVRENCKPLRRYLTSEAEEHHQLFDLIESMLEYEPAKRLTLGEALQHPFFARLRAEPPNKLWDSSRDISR
Chain of Dual specificity protein kinase CLK3 (P49761 whole entry): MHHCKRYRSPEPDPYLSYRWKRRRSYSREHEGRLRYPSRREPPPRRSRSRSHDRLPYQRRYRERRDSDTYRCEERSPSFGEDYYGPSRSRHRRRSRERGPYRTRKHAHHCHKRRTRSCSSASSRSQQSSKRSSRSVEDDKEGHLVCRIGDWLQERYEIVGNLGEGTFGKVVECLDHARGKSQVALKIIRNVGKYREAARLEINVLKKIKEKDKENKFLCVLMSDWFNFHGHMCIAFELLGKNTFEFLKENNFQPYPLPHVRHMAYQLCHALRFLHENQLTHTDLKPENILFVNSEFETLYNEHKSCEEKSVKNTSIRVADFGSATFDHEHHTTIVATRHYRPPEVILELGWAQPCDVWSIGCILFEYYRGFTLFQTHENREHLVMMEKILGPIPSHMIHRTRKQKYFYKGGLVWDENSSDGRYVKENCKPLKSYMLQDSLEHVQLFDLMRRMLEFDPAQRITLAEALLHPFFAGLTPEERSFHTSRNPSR
Chain of Casein kinase I isoform epsilon (P49674 whole entry, canonical isoform): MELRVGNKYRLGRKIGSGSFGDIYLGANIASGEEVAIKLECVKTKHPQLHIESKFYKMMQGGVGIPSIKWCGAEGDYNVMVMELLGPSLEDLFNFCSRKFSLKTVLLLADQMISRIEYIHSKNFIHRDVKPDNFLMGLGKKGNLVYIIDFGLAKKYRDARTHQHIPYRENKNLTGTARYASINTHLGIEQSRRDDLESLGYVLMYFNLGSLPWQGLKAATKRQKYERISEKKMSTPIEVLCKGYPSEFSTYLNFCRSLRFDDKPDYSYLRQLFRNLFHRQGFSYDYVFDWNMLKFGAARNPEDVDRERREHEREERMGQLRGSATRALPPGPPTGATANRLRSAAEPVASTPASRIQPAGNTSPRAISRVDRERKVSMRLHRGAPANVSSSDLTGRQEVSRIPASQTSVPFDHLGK
Chain of Dual specificity protein kinase CLK4 (Q9HAZ1 whole entry): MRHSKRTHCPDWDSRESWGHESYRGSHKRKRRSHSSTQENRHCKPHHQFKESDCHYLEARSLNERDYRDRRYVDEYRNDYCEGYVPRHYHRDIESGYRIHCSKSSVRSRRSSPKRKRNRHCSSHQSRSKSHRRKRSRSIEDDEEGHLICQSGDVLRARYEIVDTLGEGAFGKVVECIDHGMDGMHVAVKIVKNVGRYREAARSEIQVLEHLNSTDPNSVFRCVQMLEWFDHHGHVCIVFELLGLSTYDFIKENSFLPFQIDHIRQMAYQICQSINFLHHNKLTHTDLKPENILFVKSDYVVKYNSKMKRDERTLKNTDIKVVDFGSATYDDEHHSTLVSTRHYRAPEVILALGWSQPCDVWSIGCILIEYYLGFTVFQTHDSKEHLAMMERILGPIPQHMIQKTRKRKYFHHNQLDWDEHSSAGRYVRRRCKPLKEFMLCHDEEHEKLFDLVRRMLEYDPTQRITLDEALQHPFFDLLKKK
Chain of Cyclin-dependent kinase 5/CDK5 activator 1 (Q00535 whole entry, canonical isoform): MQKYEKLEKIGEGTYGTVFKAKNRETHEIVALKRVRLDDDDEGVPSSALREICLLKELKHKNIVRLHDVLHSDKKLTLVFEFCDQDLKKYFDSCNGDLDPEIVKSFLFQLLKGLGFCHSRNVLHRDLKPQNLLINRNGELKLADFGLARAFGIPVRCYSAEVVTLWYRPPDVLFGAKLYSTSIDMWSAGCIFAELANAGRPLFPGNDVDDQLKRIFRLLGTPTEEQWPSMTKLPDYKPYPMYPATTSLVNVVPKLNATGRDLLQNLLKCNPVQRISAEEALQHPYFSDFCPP
Chain of Cyclin-dependent kinase 5/CDK5 activator 1 (Q15078 whole entry, further chain, canonical isoform): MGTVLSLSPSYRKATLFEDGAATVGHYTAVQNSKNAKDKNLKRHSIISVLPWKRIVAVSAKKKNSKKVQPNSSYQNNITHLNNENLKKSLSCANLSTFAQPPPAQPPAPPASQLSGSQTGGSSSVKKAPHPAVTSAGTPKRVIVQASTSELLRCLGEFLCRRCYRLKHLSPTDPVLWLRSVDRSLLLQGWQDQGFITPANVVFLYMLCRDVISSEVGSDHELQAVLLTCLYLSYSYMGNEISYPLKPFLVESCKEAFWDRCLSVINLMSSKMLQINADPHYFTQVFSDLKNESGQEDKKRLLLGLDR
T1 sequence (P49759 whole entry): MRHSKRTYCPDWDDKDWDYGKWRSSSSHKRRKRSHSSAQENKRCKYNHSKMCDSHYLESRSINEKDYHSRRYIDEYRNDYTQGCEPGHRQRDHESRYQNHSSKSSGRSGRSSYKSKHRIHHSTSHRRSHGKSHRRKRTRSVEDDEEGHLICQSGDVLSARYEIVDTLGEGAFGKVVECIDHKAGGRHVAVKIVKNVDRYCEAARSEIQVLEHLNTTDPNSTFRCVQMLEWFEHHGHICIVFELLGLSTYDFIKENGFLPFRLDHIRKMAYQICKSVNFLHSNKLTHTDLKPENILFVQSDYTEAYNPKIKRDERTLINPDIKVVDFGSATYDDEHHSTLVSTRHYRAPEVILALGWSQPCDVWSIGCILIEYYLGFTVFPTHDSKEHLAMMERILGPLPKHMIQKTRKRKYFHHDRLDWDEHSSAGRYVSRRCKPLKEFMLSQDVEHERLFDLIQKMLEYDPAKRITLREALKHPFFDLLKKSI

Row | IC50 [1] | IC50 [2] | IC50 [3] | IC50 [4] | IC50 [5] | IC50 [6] | IC50 [7] | IC50 [8] | Kd [9] | IC50 at 48 h (in vitro) | IC50 [10] | IC50 [11] | IC50 [12] | Kd [13] | Structure (SMILES)
1 | 1030 nM | > 10000 nM | 84 nM | 2120 nM | 215 nM | 683 nM | 2480 nM | 15 nM | 0.968 nM | 4900 nM | 380 nM | 23.8 nM |  |  | CC(C)CN1CCC(C(=O)Nc2cc3cc(-c4cnn(C)c4)ccc3cn2)CC1
2 | > 10000 nM | > 10000 nM | 89.6 nM | > 10000 nM | 439 nM | 5450 nM | > 10000 nM | 507 nM | 200 nM | > 100000 nM | 82 nM | 123 nM |  |  | O=C(Nc1ccc2[nH]ncc2c1)c1csc(Nc2ccccc2)n1
3 | > 10000 nM | > 10000 nM | 572 nM | > 10000 nM | 1460 nM | > 10000 nM | > 10000 nM | 385 nM |  | 100000 nM | 4410 nM | 340 nM | > 10000 nM |  | COc1ccc2sc(-c3cncc(NC(C)=O)c3)nc2c1
4 | 414 nM | 1770 nM |  | 1110 nM | 8.8 nM | > 10000 nM | 426 nM |  |  | 7700 nM | 24.7 nM | 16.2 nM |  |  | Cc1nc2ccc(-c3cc(N)nc(N)c3)nc2n1CC(F)(F)F
5 | 470 nM | 630 nM | 13.7 nM | 2480 nM | 1580 nM | 5600 nM | 7330 nM | 28.3 nM | 0.254 nM | 16300 nM | 5.9 nM | 21.1 nM |  |  | CC(C)Oc1ccc(F)c(-c2cnc(N)c(C(=O)Nc3cnccc3N3CCC[C@@H](C(=O)O)C3)n2)c1
6 | > 10000 nM | > 10000 nM |  | 7390 nM |  |  | 584 nM |  |  | 14500 nM | 2670 nM | 452 nM | > 10000 nM | 2710 nM | COc1ccc2nc3ccc(OC)cc3c(SCCCN)c2c1
7 |  | > 10000 nM |  | 2170 nM |  |  | 817 nM |  |  | > 100000 nM |  | 21.5 nM | > 10000 nM | 561 nM | O=C1NC(Nc2ccccc2)=N/C1=C\c1ccc2c(c1)OCO2
8 | 243 nM | > 10000 nM |  | 812 nM |  |  | 117 nM |  |  | 6300 nM |  |  | 4160 nM | 1760 nM | O=C1NC(NC23CC4CC(CC(C4)C2)C3)=N/C1=C\c1ccc2ncsc2c1
9 |  | > 10000 nM | 64.7 nM | 7480 nM |  | 20.6 nM | 3560 nM | 81.4 nM | 0.851 nM | 12200 nM | 185 nM | 89.9 nM |  |  | CCN1CCN(Cc2ccc(Nc3ncc(F)c(-c4cc(F)c5nc(C)n(C(C)C)c5c4)n3)nc2)CC1 [ABEMACICLIB]
10 | > 10000 nM | > 10000 nM |  |  |  | > 10000 nM | > 10000 nM |  |  | 100000 nM |  |  | > 10000 nM | > 10000 nM | Cc1ccc(-n2cc(COc3cccc4cnc(Nc5cccc(Cl)c5)nc34)nn2)c([N+](=O)[O-])c1
11 |  | > 10000 nM | > 10000 nM | > 10000 nM | > 10000 nM | 8030 nM | > 10000 nM |  |  | 57000 nM | > 10000 nM | > 10000 nM |  |  | CNCc1ccc(-c2[nH]c3cc(F)cc4c3c2CCNC4=O)cc1 [RUCAPARIB]
12 | > 10000 nM | 1510 nM | 441 nM | > 10000 nM | 7920 nM | 4310 nM | > 10000 nM | 2850 nM | 5.97 nM | 51700 nM | 405 nM | 154 nM |  |  | c1cc(OCCN2CCCCC2)cc(-c2n[nH]c3ccc(-c4nc[nH]n4)cc23)c1 [CC-401]
13 | > 10000 nM | > 10000 nM |  |  |  | > 10000 nM |  |  |  | > 100000 nM |  |  |  |  | COc1ccc(-n2c(C)c([N+](=O)[O-])c3ccc(O)cc32)cc1
14 | > 10000 nM | > 10000 nM | 1250 nM | 6500 nM |  |  | 1930 nM |  |  | 14700 nM | 4290 nM | 537 nM | > 10000 nM |  | COc1ccc2nc3c(CO)cc(OC)cc3c(SC[C@H]3CCNC3)c2c1
15 |  | 8360 nM | 76.1 nM | 1910 nM | 4730 nM | 4240 nM | > 10000 nM | 56.2 nM | 10.2 nM | 54000 nM | 82.8 nM |  |  |  | c1ccc(CNc2nc(Nc3cc(C4CC4)[nH]n3)c3sccc3n2)cc1
16 | > 10000 nM | > 10000 nM |  | 77.4 nM | 99.2 nM | 30.8 nM | 1520 nM |  |  | 21300 nM |  | 2.6 nM |  |  | O=C(O)c1ccc2c(c1)nc(Nc1cccc(Cl)c1)c1ccncc12 [SILMITASERTIB]
17 | 1790 nM | > 10000 nM | 37.7 nM | 681 nM | 37.2 nM | 209 nM | 612 nM | 20.6 nM | 0.62 nM | 5900 nM | 89.6 nM | 14.1 nM |  |  | Cn1cc(-c2ccc3cnc(NC(=O)C4CCN(S(C)(=O)=O)CC4)cc3c2)cn1
18 |  |  |  |  |  |  |  |  |  | 5600 nM | 9160 nM |  |  |  | [H]/N=C(\N/C(=N/[H])NCCCCCCNC(=N)NC(=N)Nc1ccc(Cl)cc1)Nc1ccc(Cl)cc1 [CHLORHEXIDINE]
19 | 3960 nM | 3010 nM | 7.1 nM |  |  |  |  | 9.1 nM | 0.018 nM | 180 nM |  | 4.3 nM |  |  | CN1CCN(c2cc(C(=O)Nc3cc4cc(-c5cnn(C)c5)ccc4cn3)ccn2)CC1

Row | Structure (SMILES) | IC50 [1] | IC50 [2] | IC50 [3] | IC50 [4] | IC50 [5] | IC50 [6] | IC50 [7] | IC50 [8] | Kd [9] | IC50 at 48 h (in vitro) | IC50 [10] | IC50 [11] | IC50 [12] | Kd [13]
20 | COc1ccc(/C=C2\SC(=S)NC2=O)cc1C#C[Si](C)(C)C | > 10000 nM | > 10000 nM | 8310 nM | 7230 nM | > 10000 nM | > 10000 nM | > 10000 nM |  |  | 64800 nM | 8410 nM | > 10000 nM | > 10000 nM | 
21 | COc1ccc2c(c1)[nH]c1c(C)nccc12 [HARMINE] |  |  |  | 8810 nM | 3170 nM | 2860 nM | 8360 nM |  |  | 56500 nM | 1150 nM | 102 nM |  | 
